These results are taken from patent publication US20230340127A1, “METHODS AND COMPOSITIONS FOR CANCER TREATMENT BY INHIBITION OF FBXO44” (Sanford Burnham Prebys Medical Discovery Institute, priority 2022, published 2023).

The test system of assay [1] is cancer cell lines and patient-derived glioblastoma cultures. The experiment in a line: Viability of cancer cells after F5446 treatment. In kind it is cell-based, human. To be noted: F5446 for 48 hrs (FIG. 9G). As for the experimental part:
Cell lines and culture conditions: all cancer cell lines were purchased from the American Tissue Culture Collection (ATCC) and grown in recommended culture media. Specifically, MDA-MB-231, BT-549, MCF7, A549, and H446 cells were cultured in RPMI 1640 (Corning), HEK293T, HEK293FT, and HeLa cells were cultured in DMEM (Corning), MDA-MB-231-luc cells were cultured in MEM (Corning), U2OS and HCT116 cells were cultured in McCoy's 5A (Corning). The above media were supplemented with 10% fetal bovine serum (FBS), 2 mM glutamine, and 100 U/mL penicillin and streptomycin. Patient-derived glioma stem cells (GSCs) were obtained (Xie et al., 2018) and cultured in Neurobasal medium (Thermo Fisher Scientific, #11360070) supplemented with B27 without vitamin A (Thermo Fisher Scientific, #A3353501), EGF, and bFGF (20 ng/mL each; R&D Systems), sodium pyruvate (Thermo Fisher Scientific, #11360070), and GlutaMAX (Thermo Fisher Scientific, #35050061). All cells were incubated at 37° C. in 5% CO2. The cell cultures were authenticated by short tandem repeat (STR) analysis.
To assess whether this epigenetic regulatory pathway could potentially be targeted for cancer treatment, SUV39H1 and its chemical inhibitor F5446 were used to perform experiments. IF, qRT-PCR, and growth curve experiments were performed as described in previous examples. […]

Assay [2] deals with MDA-MB-231-luc-derived mammary tumors. The assay is described as follows: MDA-MB-231-luc orthotopic mammary tumors in immunodeficient mice treated with F5446. Type of assay: in vivo, mouse. As to the method:
Animal studies: mice were maintained under pathogen free conditions in 14 hrs light/10 hrs dark cycle with ad libitum access to food and water. All animal handling and procedures used were performed in accordance with protocols approved by the Institutional Animal Care and Use Committee of SBP or UCSD. For intracardiac injections, 10^5 MDA-MB-231-luc cells transduced with lentivirus expressing non-targeting or FBXO44 shRNAs were resuspended in 100 μL DPBS and injected into the left ventricle of 6-week old female athymic nude mice (Envigo no. 069) anesthetized with isoflurane. Metastatic seeding was monitored weekly by intraperitoneal (i.p.) injection of 100 μL of 30 mg/mL D-Luciferin (Xenogen no.)CR-1001) 10 min prior to imaging using the IVIS Spectrum Xenogen Imaging System (Caliper Life Sciences). Images were analyzed using Living Image 3.0 software (Caliper Life Sciences). For ex vivo imaging of tissues, mice were injected with D-Luciferin prior to euthanasia, tissues harvested and placed in 24-well tissue culture plates containing 1 mL of 0.3 mg/mL D-Luciferin and imaged. Organs/tissues were fixed in 10% formalin and subjected to hematoxylin and eosin staining. For orthotopic injections of NSG mice, 3×10^6 MDA-MB-231-luc cells were suspended in 100 μL of PBS and injected into the mammary fat pads of 4- to 6-week-old female mice. For F5446 drug treatments, mice were randomly divided into 3 groups at day 12. The mice were administered vehicle (10% Cremophor EL in PBS) or F5446 at doses of 10 and 20 mg/kg body weight via i.p. injection on days 12, 14, 17, 19, 21 and 24 post-inoculation of cells. Tumor size was measured every 4-5 days (long diameter and short diameter) with a caliper and tumor volume calculated as 0.5×length×width×width. Mice were imaged weekly to monitor tumor growth and metastasis in vivo using an IVIS Spectrum Xenogen Imaging System (Caliper Life Sciences). All mice were euthanized at day 25 except 3 mice were taken out from each group for tumor IHC staining of γH2AX and cleaved Caspase 3 and quantitative RT-PCR analysis at day 21. […]

As for `COC(=O)c1cc2c(n1S(=O)(=O)c1ccc(Cl)cc1)C(=O)C(=O)c1[nH]cc(C(=O)OCc3ccccc3)c1-2` [F5446], the “survival of cancer cell lines and patient-derived glioblastoma cultures” value in assay [1] is “reduced”. In assay [2] (IHC of F5446-treated tumors (FIG. 12K)), the “γH2AX and cleaved Caspase 3 in tumors” value is on record as “dose-dependent increase”. Also, in assay [2] (immunocompromised mice, 10 and 20 mg/kg i.p. (FIGS. 12H-12J)), the mammary tumor growth result is on record as “inhibited mammary tumor growth in immunocompromised mice in a dose-dependent manner”. Moreover, the “expression of REs, IFN α/β, and ISGs in tumors” value in assay [2] (qRT-PCR of F5446-treated tumors (FIG. 12L)) was “upregulated”.
